What was measured:
[1] = system: B16OVA tumor-bearing mice; assay: Copanlisib-triggered colitis in B16OVA tumor model; format: in vivo, C57BL/6 mice; conditions: copanlisib 25 mg/kg i.p.
Experimental: B16F10, B16OVA, and MC38 xenograft tumors were inoculated into healthy C57BL/6 mice (female, 7 to 8 weeks old) through s.c. inoculation of B16F10 cells (2.5×10^5 cells/mouse) in serum-free DMEM, B16OVA cells (2.5×10^5 cells/mouse) in serum-free RPMI 1640 culture medium, and MC38 cells (5×10^5 cells/mouse) in serum-free DMEM in the right flank. Tumor volume (volume=0.5×a×b^2, where a is the large diameter and b is the small diameter) was measured every 2 to 3 days from day 7 after the tumor was inoculated.
For the COP-triggered colitis study in the B16OVA tumor model, COP treatment was provided by i.p. administration of COP (25 mg/kg, in saline) at days 6, 8, 10, 12, 14, 16 and 18 after tumor inoculation. Colitis was induced by feeding the tumor-bearing mice 3% DSS at day 14 for 4 days. For the colitis treatment group, mice received a single s.c. treatment with COMBO COIN at day 18. Bodyweight and DAI scores were monitored every 2 or 3 days. Mice were euthanized at 22 days post-inoculation. Colons were preserved by trained veterinary technicians at the UTSW ARC Diagnostic Laboratory without prior knowledge of the treatment. The lengths of preserved colons were measured and fixed with 10% NBF for 24 h. Fixed specimens were kept in 70% ethanol and transferred to the UTSW Histo Pathology Core for histological study (H&E, Ki67 and TUNEL stains).

[2] = Aqueous electrophoresis (zeta potential); format: physicochemical; conditions: dispersed in 1X PBS, diluted 100 times with deionized water, pH 6.8-8.0, 25° C.
Experimental: Sphere-equivalent intensity-average diameters (Dh) and zeta potentials of all NF samples were measured in a Malvern Zetasizer Pro instrument.

Compound	B16OVA tumor growth [1]	colitis symptoms induced by cancer treatment [1]	Average zeta potential [2]
COc1c(OCCCN2CCOCC2)ccc2c1N=C(NC(=O)c1cnc(N)nc1)N1CCN=C21 [Copanlisib, copanlisib]	effectively inhibited B16OVA tumor growth	induced mild colitis symptoms	
ACESPLKRQCGGG [TGF-β1 mimetic peptide]			+22.1 ± 3.1 mV
